From patent publication US8063225B2, “Tricyclic compound derivatives useful in the treatment of neoplastic diseases, inflammatory disorders and immunomodulatory disorders” (Chembridge Corporation, priority 2006, dated 2011)

Columns and labels:
[1] = test system: MM1s; experiment: Cell proliferation inhibition, MTT assay, MM1s; type: cell-based; conditions: Homo sapiens, MM1.S, 72 h, MM1S multiple myeloma cells, 3-day proliferation
Source text: (§1) IGF1R and other tyrosine kinase inhibitors can inhibit the proliferation of certain cancer cell lines indicating their possible therapeutic utility for treating the corresponding cancer types. Cancer cell lines of interest and control normal lines, including CHO, HEK293, BA/F3, COLO205, PC3, DU145, MCF7, Panc1, ACHN, Hep G2, H460, K562, TT, U87-MG, CAOV-3, SK-MEL5, Karpas 299 and human multiple myeloma cell lines H929, MM1s, MM1r, UTMC2, CPM2, KMS11, My5, KMS12PE, My7, JJN3, KMS18, U266, SKMM2, RPMI-8226 are plated in white, clear-bottomed 384-well cell culture plates at 2500-5000 cells per well and supplied with dilutions of tested compounds After a desired period of time (typically 3 days), the number of viable cells is quantitated by using Cell Titer-Glo Luminescent Cell Viability Assay (Promega), a cell proliferation assay system based on detection of total amount of ATP present as a measure of cell metabolic activity. The plated cells are mixed with the Cell Titer-Glo developing reagent and counted in a luminescence multiwell plate reader according to the standard manufacturer's protocol to generate IC50 curves for cell proliferation inhibition. Results are typically reported as percent of growth (% viability =(OD72h(compound)−ODday0))/(OD72h(no compound)−ODday0). Alternatively, viable cells are quantitated by using the conventional colorimetric MTT assay. The MTT assay is based on the cleavage of the yellow tetrazolium salt MTT to purple formazan crystal by metabolic active cells. The formazan is then solubilized, and the concentration determined by optical density at 570 nm. The cells plated and incubated with a compound as described above are supplemented with the solution of MTT and incubated for 2-3 hours. The growth medium is removed and dimethyl sulfoxide is added into each well to dissolve the formazan. The absorbance is measured on an ELISA plate reader with a test wavelength of 570 nm and a background subtraction wavelength of 630 nm to obtain sample signal (OD570-OD630). […] The results are reported in terms of IC50 value for a particular compound and a cell line in the standard 3-day proliferation assay using Cell Titer-Glo. […] The results are reported in terms of IC50 value for a particular compound and a cell line in the standard 3-day proliferation assay using MTT assay.

[2] = test system: CPM2; experiment: Cell proliferation inhibition, MTT assay, CPM2; type: cell-based; conditions: Homo sapiens, Multiple myeloma cell, 72 h, CPM2 multiple myeloma cells, 3-day proliferation
Source text: as §1

[3] = test system: KMS11; experiment: Cell proliferation inhibition, MTT assay, KMS11; type: cell-based; conditions: Homo sapiens, KMS-11, 72 h, KMS11 multiple myeloma cells, 3-day proliferation
Source text: as §1

[4] = test system: H929; experiment: Cell proliferation inhibition, MTT assay, H929; type: cell-based; conditions: Homo sapiens, NCI-H929, 72 h, H929 multiple myeloma cells, 3-day proliferation
Source text: as §1

[5] = test system: MM1r; experiment: Cell proliferation inhibition, MTT assay, MM1r; type: cell-based; conditions: Homo sapiens, MM.1R, 72 h, MM1R multiple myeloma cells, 3-day proliferation
Source text: as §1

[6] = test system: HEK293 (human normal embryonic kidney); experiment: Cell proliferation inhibition, MTT assay, HEK293; type: cell-based; conditions: 72 h, HEK293 cells, 3-day proliferation, read-out: HEK IC50
Source text: as §1

[7] = test system: UTMC2; experiment: Cell proliferation inhibition, MTT assay, UTMC2; type: cell-based; conditions: Homo sapiens, 72 h, UTMC2 multiple myeloma cells, 3-day proliferation
Source text: as §1

[8] = test system: CHO (chinese hamster ovary); experiment: Cell proliferation inhibition, MTT assay, CHO; type: cell-based; conditions: Cricetulus griseus, 72 h, CHO cells, 3-day proliferation
Source text: as §1

[9] = target: T1, InsR (Homo sapiens, UniProt P06213); experiment: Tyrosine kinase assay (Kinase-Glo or AlphaScreen), InsR; conditions: biochemical tyrosine kinase assay
T1 construct: 6×His- or GST-tagged kinase domain fragments of the corresponding RTKs expressed in baculovirus system; host or cells: baculovirus system
How it was run: (§2)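 Recombinant His- or GST-tagged kinase domains from baculovirus were assayed with poly(Glu-Tyr, 4:1) substrate and 10 μM ATP in Tris-HCl pH 7.5 with Mg2+/Mn2+. Kinase-Glo: 37° C for 60 minutes, residual ATP read by luminescence. IC50 from non-linear regression over eight concentrations, 1 nM to 20 μM.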

[10] = target: T2, Alk (Homo sapiens, UniProt Q9UM73); experiment: Tyrosine kinase assay (Kinase-Glo or AlphaScreen), Alk; conditions: biochemical tyrosine kinase assay
T2 construct: 6×His- or GST-tagged kinase domain fragments of the corresponding RTKs expressed in baculovirus system; host or cells: baculovirus system
How it was run: as §2

[11] = target: T3, Jak2 (Homo sapiens, UniProt O60674); experiment: Tyrosine kinase assay (Kinase-Glo or AlphaScreen), Jak2; conditions: biochemical tyrosine kinase assay
T3 construct: 6×His- or GST-tagged kinase domain fragments of the corresponding RTKs expressed in baculovirus system; host or cells: baculovirus system
How it was run: as §2

[12] = target: T4, TrkA (Homo sapiens, UniProt P04629); experiment: Tyrosine kinase assay (Kinase-Glo or AlphaScreen), TrkA; conditions: biochemical tyrosine kinase assay
T4 construct: 6×His- or GST-tagged kinase domain fragments of the corresponding RTKs expressed in baculovirus system; host or cells: baculovirus system
Procedure: To determine inhibition of several tyrosine kinases, such as IGF1R, InsR, Alk, TrkA and Jak2, kinase assays are conducted using either Kinase-Glo (Promega) or AlphaScreen (PerkinElmer) kinase assay platforms. The Kinase-Glo Luminescent Kinase Assay is a homogeneous method for measuring kinase activity by determining the amount of ATP remaining after a kinase reaction. The luminescent signal is proportional to the amount of ATP and inversely proportional to the amount of kinase activity. Tyrosine kinase PT66 AlphaScreen Assay is a high-sensitivity homogeneous, anti-phosphotyrosine antibody-mediated luminescent proximity method measuring, incorporation of phosphate in synthetic poly(Glu-Tyr) substrate. The kinase preparations used consist of purified recombinant, 6×His- or GST-tagged kinase domain fragments of the corresponding RTKs expressed in baculovirus system.
The IGF1R tyrosine kinase is assayed in Kinase-Glo ATP depletion assay using the synthetic polymer poly(Glu-Tyr, 4:1) (Sigma Chemicals) as a phosphoacceptor substrate. Each reaction mixture consists of a total volume of 10 μl and contains 40 ng of the enzyme, 5 μg of poly(Glu-Tyr), 10 μM of ATP and variable concentrations of test compounds. The mixtures also contain 50 mM Tris-HCl, pH 7.5; 5 mM MgCl2; 5 mM MnCl2; 2 mM DTT and 0.01% Tween 20. The reaction mixtures are incubated at 37° C. for 60 minutes and residual concentration of ATP in the mixture is determined by adding luciferase-containing Kinase-Glo (Promega) development reagent and counting luminescence levels using Fusion Universal Microplate Analyzer (PerkinElmer). Tested compounds are dissolved in dimethyl sulfoxide to a stock concentration of 10 mM and are typically evaluated in the assay at eight concentrations in 1 nM to 20 μM range, each in quadruplicate. […] IC50 values are derived by non-linear regression analysis using Prism 3.0 software (Graphpad Software). Other tyrosine kinases are assayed according to the same protocol after titrating amount of the enzyme to provide optimal signal-to-noise ratio and no more than 30% of total ATP consumption in the reaction conditions used.
The IGF1R tyrosine kinase is assayed in Phosphotyrosine (PT66 or PT 100) AlphaScreen chemiluminescent assay (PerkinElmer) according to the manufacturerer's recommendations. Each kinase reaction mixture consists of a total volume of 15 μl and contains 0.1-1 ng of the enzyme, 7 ng of biotinylated poly(Glu-Tyr) (Cis-Bio), 10 μM of ATP and variable concentrations of test compounds. The mixtures also contain 50 mM Tris-HCl, pH 7.5; 5 mM MgCl2; 5 mM MnCl2; 2 mM DTT and 0.01% Tween 20. The reaction mixtures are incubated at room temperature for 30 minutes. Ten (10) μl of the mixture of […] and donor beads (as supplied by the manufacturer) is then added to the reaction and the incubation is continued for an additional 60 minutes.

[13] = target: T5, IGF1R tyrosine kinase (Homo sapiens, UniProt P08069); experiment: IGF1R tyrosine kinase assay (Kinase-Glo ATP depletion or PT66/PT100 AlphaScreen); conditions: biochemical tyrosine kinase assay
T5 construct: 6×His- or GST-tagged kinase domain fragments of the corresponding RTKs expressed in baculovirus system; host or cells: baculovirus system
How it was run: as §2

[14] = test system: H929 (multiple myeloma); experiment: Cell proliferation inhibition, Cell Titer-Glo, H929; type: cell-based; conditions: Homo sapiens, NCI-H929; cell proliferation assay, H929 cells
How it was run: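 Cells seeded at 2500-5000 per well with serially diluted compound for typically 3 days. Viable cells measured by ATP luminescence (Cell Titer-Glo); IC50 from proliferation-inhibition curves.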

[15] = test system: K562; experiment: Cell proliferation inhibition, Cell Titer-Glo, K562; type: cell-based; conditions: Homo sapiens; cell proliferation assay, K562 cells
How it was run: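 K562 cells were seeded at 2500-5000 cells per well in white, clear-bottomed 384-well culture plates and treated with dilutions of test compounds for typically 3 days. Viable cells were quantified with the Cell Titer-Glo Luminescent Cell Viability Assay (Promega), which measures total ATP, read on a luminescence plate reader to derive IC50 values for proliferation inhibition.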

[16] = test system: HEK293 (human normal embryonic kidney); experiment: Cell proliferation inhibition, Cell Titer-Glo, HEK293; type: cell-based; conditions: cell proliferation assay, HEK293 cells, read-out: HEK 293 IC50
Procedure: IGF1R and other tyrosine kinase inhibitors can inhibit the proliferation of certain cancer cell lines indicating their possible therapeutic utility for treating the corresponding cancer types. Cancer cell lines of interest and control normal lines, including CHO, HEK293, BA/F3, MM1, H929, COLO205, PC3, DU145, MCF7, Panc1, ACHN, Hep G2, H460, K562, TT, U87-G, CAOV-3, SK-MEL5, Karpas 299, are plated in white, clear-bottomed 384-well cell culture plates at 2500-5000 cells per well and supplied with dilutions of tested compounds After a desired period of time (typically 3 days), the number of viable cells is quantitated by using Cell Titer-Glo Luminescent Cell Viability Assay (Promega), a cell proliferation assay system based on detection of total amount of ATP present as a measure of cell metabolic activity. The plated cells are mixed with the Cell Titer-Glo developing reagent and counted in a luminescence multiwell plate reader according to the standard manufacturer's protocol to generate IC50 curves for cell proliferation inhibition.
as §1

T1 sequence (P06213 1023-1298 limits assumed, species assumed): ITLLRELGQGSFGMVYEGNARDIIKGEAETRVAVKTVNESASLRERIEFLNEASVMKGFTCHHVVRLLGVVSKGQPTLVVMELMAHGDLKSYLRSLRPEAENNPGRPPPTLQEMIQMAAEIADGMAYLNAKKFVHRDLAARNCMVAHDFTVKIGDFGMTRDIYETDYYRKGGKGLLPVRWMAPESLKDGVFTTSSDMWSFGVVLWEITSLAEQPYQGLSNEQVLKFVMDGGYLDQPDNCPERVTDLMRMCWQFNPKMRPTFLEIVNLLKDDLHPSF
T5 sequence (P08069 999-1274 limits assumed): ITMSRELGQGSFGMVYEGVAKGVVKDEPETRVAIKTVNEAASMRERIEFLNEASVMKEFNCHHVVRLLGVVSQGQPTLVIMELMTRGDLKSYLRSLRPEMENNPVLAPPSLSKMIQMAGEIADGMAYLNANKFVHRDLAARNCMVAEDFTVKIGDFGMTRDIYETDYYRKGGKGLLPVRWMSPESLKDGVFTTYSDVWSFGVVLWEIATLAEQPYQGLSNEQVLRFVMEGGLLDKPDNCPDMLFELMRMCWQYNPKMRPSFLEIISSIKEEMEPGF
T2 sequence (Q9UM73 1116-1392 limits assumed, species assumed): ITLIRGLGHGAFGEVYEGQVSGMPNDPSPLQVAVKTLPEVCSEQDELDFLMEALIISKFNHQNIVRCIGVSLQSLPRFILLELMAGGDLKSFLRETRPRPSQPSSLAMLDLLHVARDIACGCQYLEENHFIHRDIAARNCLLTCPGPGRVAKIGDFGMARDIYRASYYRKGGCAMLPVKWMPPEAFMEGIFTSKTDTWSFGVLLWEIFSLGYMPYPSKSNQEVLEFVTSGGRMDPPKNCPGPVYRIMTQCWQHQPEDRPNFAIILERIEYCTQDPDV
T3 sequence (O60674 849-1124 limits assumed, species assumed): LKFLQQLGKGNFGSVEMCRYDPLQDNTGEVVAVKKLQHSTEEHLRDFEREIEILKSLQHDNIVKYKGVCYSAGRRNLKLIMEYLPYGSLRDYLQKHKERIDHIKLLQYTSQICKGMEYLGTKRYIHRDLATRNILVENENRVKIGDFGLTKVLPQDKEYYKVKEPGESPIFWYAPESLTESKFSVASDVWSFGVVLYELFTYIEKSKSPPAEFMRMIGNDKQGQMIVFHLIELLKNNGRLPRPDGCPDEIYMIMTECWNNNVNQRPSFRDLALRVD
T4 sequence (P04629 510-781 limits assumed, species assumed): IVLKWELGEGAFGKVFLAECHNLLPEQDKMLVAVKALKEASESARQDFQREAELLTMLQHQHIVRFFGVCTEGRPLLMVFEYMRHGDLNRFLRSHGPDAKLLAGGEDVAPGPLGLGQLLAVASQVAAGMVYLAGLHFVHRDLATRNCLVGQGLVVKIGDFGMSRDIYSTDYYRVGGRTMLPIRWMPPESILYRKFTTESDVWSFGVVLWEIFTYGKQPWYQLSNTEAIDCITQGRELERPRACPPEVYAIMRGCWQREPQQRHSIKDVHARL

IC50 [1] | IC50 [4] | IC50 [5] | IC50 [9] | IC50 [10] | IC50 [11] | IC50 [12] | IC50 [13] | IC50 [14] | IC50 [15] | Structure (SMILES) | IC50 [2] | IC50 [3] | IC50 [6] | IC50 [7] | IC50 [8] | IC50 [16]
500 to 1000 nM | 500 to 1000 nM | 1000 to 5000 nM |  |  |  |  |  |  |  | COc1ccc(OCC(=O)CNc2cc[nH]c(=O)c2-c2nc3cc4c(cc3[nH]2)C(=O)N(C2CCN(C)CC2)C4)c(Cl)c1 [drawing 843] | 1000 to 5000 nM | 1000 to 5000 nM | ≥ 20000 nM | < 500 nM | ≥ 20000 nM | 
 |  |  | < 500 nM | 500 to 5000 nM | < 500 nM | < 500 nM | < 500 nM |  |  | Cc1c(Cl)cccc1OC[C@H](O)CNc1cc[nH]c(=O)c1-c1nc2cc3c(cc2[nH]1)C(=O)N(C1CCN(C)CC1)C3 [compound 133] |  |  |  |  |  | 
< 500 nM | < 500 nM | 500 to 1000 nM |  |  |  |  |  |  |  | CN1CCC(N2Cc3cc4[nH]c(-c5c(NCC(=O)COc6ccccc6Br)cc[nH]c5=O)nc4cc3C2=O)CC1 [drawing 841] | 1000 to 5000 nM | 1000 to 5000 nM | ≥ 20000 nM | < 500 nM | ≥ 20000 nM | 
 |  |  | < 500 nM | < 500 nM | 500 to 5000 nM | < 500 nM | < 500 nM | 5000 to 15000 nM | > 15000 nM | CN1CCC(N2Cc3cc4nc(-c5c(NC[C@@H](O)c6cccc(Cl)c6)cc[nH]c5=O)[nH]c4cc3C2=O)CC1 [compound 16] |  |  |  |  |  | 5000 to 15000 nM
